Reference: publication PMC6934184, “Selective DNA-PKcs inhibition extends the therapeutic index of localized radiotherapy and chemotherapy” (The Journal of Clinical Investigation, 2019)

Molecular target: T1, JAK3 (Homo sapiens, UniProt P52333)
T1 construct: purchased Thermo Fisher Scientific (Life Technologies) SelectScreen
Test: SelectScreen Z'LYTE
Format: biochemical
Procedure, shortened: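 SelectScreen broad panel; activity (Z'LYTE, Adapta) plus binding formats. ATP: Km app for CSF1R Z'LYTE; 10 for CAMK1 Adapta. Readout = % per kinase.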

T1 sequence (P52333 whole entry): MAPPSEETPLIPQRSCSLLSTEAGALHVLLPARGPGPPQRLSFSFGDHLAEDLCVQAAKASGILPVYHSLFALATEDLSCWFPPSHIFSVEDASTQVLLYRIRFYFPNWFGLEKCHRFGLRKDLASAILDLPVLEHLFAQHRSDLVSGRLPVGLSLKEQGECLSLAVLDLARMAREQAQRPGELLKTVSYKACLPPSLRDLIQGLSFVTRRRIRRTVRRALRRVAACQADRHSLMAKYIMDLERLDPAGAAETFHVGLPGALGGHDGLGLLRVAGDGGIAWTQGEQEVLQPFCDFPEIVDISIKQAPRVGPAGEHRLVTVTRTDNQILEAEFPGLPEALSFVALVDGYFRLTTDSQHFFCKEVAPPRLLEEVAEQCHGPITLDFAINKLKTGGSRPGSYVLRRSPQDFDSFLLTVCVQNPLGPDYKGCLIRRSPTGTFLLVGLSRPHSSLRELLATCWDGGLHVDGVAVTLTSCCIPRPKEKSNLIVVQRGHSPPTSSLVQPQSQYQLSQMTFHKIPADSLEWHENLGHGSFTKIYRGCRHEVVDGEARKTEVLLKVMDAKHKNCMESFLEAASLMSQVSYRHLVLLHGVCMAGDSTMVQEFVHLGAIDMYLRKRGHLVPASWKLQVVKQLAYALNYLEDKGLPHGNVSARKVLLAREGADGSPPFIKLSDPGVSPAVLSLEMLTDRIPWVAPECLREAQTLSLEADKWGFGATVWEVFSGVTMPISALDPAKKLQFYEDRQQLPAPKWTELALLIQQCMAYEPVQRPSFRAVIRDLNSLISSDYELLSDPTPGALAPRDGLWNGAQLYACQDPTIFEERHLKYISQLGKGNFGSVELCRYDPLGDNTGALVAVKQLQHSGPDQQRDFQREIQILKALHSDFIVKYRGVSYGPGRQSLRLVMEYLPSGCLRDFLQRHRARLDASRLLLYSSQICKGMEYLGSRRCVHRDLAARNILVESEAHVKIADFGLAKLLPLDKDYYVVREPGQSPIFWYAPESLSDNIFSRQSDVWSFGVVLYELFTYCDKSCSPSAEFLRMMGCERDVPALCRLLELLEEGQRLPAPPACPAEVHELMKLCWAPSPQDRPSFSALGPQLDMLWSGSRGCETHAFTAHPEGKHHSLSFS

Compound: CN(C(=O)CN1CCOCC1)c1ccc2sc3c(-c4cccc5c(=O)cc(N6CC7CCC(C6)O7)oc45)cccc3c2c1 [NU5455]
- inhibition at 1 µM: 6%
